Experiment [1] deals with human ATX (Homo sapiens (Human), UniProt Q13822). Kind of experiment: Human ATX enzyme inhibition assay (fluorescence quenching, MR121 substrate). The experiment is classed as biochemical. The protocol:
Human ATX Enzyme Inhibition Assay
ATX inhibition was measured by a fluorescence quenching assay using a specifically labeled substrate analogue (MR121 substrate). To obtain this MR121 substrate, BOC and TBS protected 6-amino-hexanoic acid (R)-3-({2-[3-(2-{2-[2-(2-amino-ethoxy)-ethoxy]-ethoxy}-ethoxy)-propionylamino]-ethoxy}-hydroxy-phosphoryloxy)-2-hydroxy-propyl ester (Ferguson et al., Org Lett 2006, 8 (10), 2023) was labeled with MR121 fluorophore (CAS 185308-24-1, 1-(3-carboxypropyl)-11-ethyl-1,2,3,4,8,9,10,11-octahydro-dipyrido[3,2-b:2′,3′-i]phenoxazin-13-ium) on the free amine of the ethanolamine side and then, after deprotection, subsequently with tryptophan on the side of the aminohexanoic acid.
(§1) Assay working solutions were made as follows:
Assay buffer (50 mM Tris-HCl, 140 mM NaCl, 5 mM KCl, 1 mM CaCl2, 1 mM MgCl2, 0.01% Triton-X-100, pH 8.0;
ATX solution: ATX (human His-tagged) stock solution (1.08 mg/mL in 20 mM bicine, pH 8.5, 0.15 M NaCl, 10% glycerol, 0.3% CHAPS, 0.02% NaN3), diluted to 1.4-2.5× final concentration in assay buffer;
MR121 substrate solution: MR121 substrate stock solution (800 μM MR121 substrate in DMSO), diluted to 2-5× final concentration in assay buffer.
Test compounds (10 mM stock in DMSO, 8 μL) were obtained in 384 well sample plates (Corning Costar #3655) and diluted with 8 μL DMSO. Row-wise serial dilutions were made by transferring 8 μL cpd solution to the next row up to row O. The compound and control solutions were mixed five times and 2 μL were transferred to 384 well assay plates (Corning Costar #3702). Then, 15 μL of 41.7 nM ATX solution was added (30 nM final concentration), mixed five times and then incubated for 15 minutes at 30° C. 10 μL of MR121 substrate solution was added (1 μM final concentration), mixed 30 times and then incubated for 15 minutes at 30° C.

For experiment [2], the target named is Human carbonic anhydrase II (hCA-II) (Homo sapiens (Human), UniProt P00918). Put plainly: Human carbonic anhydrase-II inhibition assay (absorbance, 4-nitrophenyl acetate substrate). The experiment is classed as biochemical. The protocol:
Human Carbonic Anhydrase-II Inhibition Assay
Human carbonic anhydrase II (hCA-II) inhibition was measured by an absorbance method using 4-nitrophenyl acetate (4-NPA) as its substrate. 4-NPA can be catalyzed by active hCA II via a zinc-hydroxide mechanism. The nitrophenolate in the products can be ionized to generate a bright yellow anion with high absorbance at 348 to 400 nm, as reported in the literature (Armstrong et al., J. Biol. Chem. 1966, 241, 5137-5149). OD340 nm was chosen for detecting hCA II substrate conversion.
as §1
Assay buffer: 50 mM MOPS, 33 mM Na2SO4, 1 mM EDTA, 0.5 mg/ml BSA, pH 7.5;
Enzyme solution: hCA-II (human, full length) stock solution (1.0 mg/mL in 20 mM HEPES, 50 mM NaCl, pH 7.4), diluted to 2133× final concentration in assay buffer;
4-NPA substrate solution: 4-NPA substrate stock solution (250 mM in DMSO, stored at −20° C.), diluted to 50× final concentration in deionized water.
Test compounds (10 mM stock in DMSO, 100 μL) were obtained in […] sample plates (Corning Costar #3655) and diluted to 0.5 mM. Column-wise serial dilutions were made by transferring 20 μL compound solutions to the next column, from column 3 up to 22. After this, 1.2 μL were transferred to 384 well assay plates (Corning Costar #3701). Then 30 μL of 16 nM hCA II solution was added (8 nM final concentration), mixed five times. 30 μL of 4-NPA substrate solution was added (2.5 mM final concentration), mixed five times. Absorbance at 340 nm was then measured immediately as time zero. The assay plates were incubated at room temperature for 1 hour and then measured as time 1 hour (Perkin Elmer EnVision 2103; Filter: Photometric 340; Light intensity 60%; Number of flashes: 10). IC50 values and Ki values were calculated from these readouts.

The mark [3] stands for this setting: human His-tagged ATX 30 nM, MR121 substrate 1 μM, 30° C., read-out: ATX IC50.
The mark [4] stands for this setting: hCA II 8 nM, 4-NPA 2.5 mM, absorbance 340 nm, room temperature 1 hour, read-out: CA-II IC50.

Each structure is given as a SMILES string. Like-named read-outs stand apart in the source and are kept apart here.

As usually defined, the IC50 is the concentration that inhibits the measured activity by half. Turning to `CC(C)(C)C(=O)Nc1cc(C#N)cnc1COC(=O)N1CC2=C(C1)CN(C(=O)c1cc(F)c(S(N)(=O)=O)cc1F)C2` [Example 1.27, [5-cyano-3-(2,2-dimethylpropanoylamino)pyridin-2-yl]methyl 2-(2,5-difluoro-4-sulfamoylbenzoyl)-1,3,4,6-tetrahydropyrrolo[3,4-c]pyrrole-5-carboxylate], the values for the IC50 in experiment [1] (setting [3]) and in experiment [2] (setting [4]) were 8 nM and 18 nM, respectively.

Consider `NS(=O)(=O)c1ccc(C(=O)N2CC3=C(CN(C(=O)CCc4ccc(OC(F)(F)F)cc4)C3)C2)nc1` [Example 3.01, 6-[2-[3-[4-(trifluoromethoxy)phenyl]propanoyl]-1,3,4,6-tetrahydropyrrolo[3,4-c]pyrrole-5-carbonyl]pyridine-3-sulfonamide], for which the IC50 in experiment [1] came out at 5 nM; in experiment [2], 12 nM.

As to `Cc1nnn(Cc2cc(C#N)ccc2CCC(=O)N2CC3=C(C2)CN(C(=O)c2ccc(S(N)(=O)=O)cc2F)C3)n1` [Example 3.06, 4-[2-[3-[4-cyano-2-[(5-methyltetrazol-2-yl)methyl]phenyl]propanoyl]-1,3,4,6-tetrahydropyrrolo[3,4-c]pyrrole-5-carbonyl]-3-fluorobenzenesulfonamide], the half-maximal inhibitory concentration (IC50) in experiment [1] is 2 nM; in experiment [2], 16 nM.

As to `CC(C)(C)C(=O)Nc1cc(C(F)(F)F)cnc1COC(=O)N1CCC2=C(CCN(C(=O)c3ccc(S(N)(=O)=O)cc3F)C2)C1` [Example 1.28, [3-(2,2-dimethylpropanoylamino)-5-(trifluoromethyl)pyridin-2-yl]methyl 6-(2-fluoro-4-sulfamoylbenzoyl)-1,3,4,5,7,8-hexahydro-2,6-naphthyridine-2-carboxylate], in experiment [1] (setting [3]), the half-maximal inhibitory concentration (IC50) stood at 1 nM.

With `CC(C)(C)C(=O)Nc1cc(Cl)cnc1COC(=O)N1CC2=C(C1)CN(C(=O)c1ccc(S(N)(=O)=O)cc1F)C2` [Example 1.12, [5-chloro-3-(2,2-dimethylpropanoylamino)pyridin-2-yl]methyl 2-(2-fluoro-4-sulfamoylbenzoyl)-1,3,4,6-tetrahydropyrrolo[3,4-c]pyrrole-5-carboxylate], the half-inhibitory concentration (IC50) in experiment [1] (setting [3]) is 6 nM; in experiment [2] (setting [4]) it was 12.9 nM.

Take `CC(C)(C)C(=O)Nc1ccc(Cl)nc1COC(=O)N1CC2=C(C1)CN(C(=O)c1ccc(S(N)(=O)=O)cc1F)C2` [Example 1.18, [6-chloro-3-(2,2-dimethylpropanoylamino)pyridin-2-yl]methyl 2-(2-fluoro-4-sulfamoylbenzoyl)-1,3,4,6-tetrahydropyrrolo[3,4-c]pyrrole-5-carboxylate]: the 50% inhibitory concentration (IC50) in experiment [1] (setting [3]) amounted to 2 nM; in experiment [2] (setting [4]) it was 1 nM.

In the case of `CC(C)(C)C(=O)Nc1cc(C(F)(F)F)cnc1COC(=O)N1CC2=C(C1)CN(C(=O)c1ccc(S(N)(=O)=O)c(F)c1)C2` [Example 1.03, [3-(2,2-dimethylpropanoylamino)-5-(trifluoromethyl)pyridin-2-yl]methyl 2-(3-fluoro-4-sulfamoylbenzoyl)-1,3,4,6-tetrahydropyrrolo[3,4-c]pyrrole-5-carboxylate], the IC50 was 5 nM in experiment [1] (setting [3]) and 9 nM in experiment [2] (setting [4]).

Take `CC(C)(C)C(=O)Nc1cc(Cl)c(Cl)nc1COC(=O)N1CC2=C(C1)CN(C(=O)c1c(F)cc(S(N)(=O)=O)cc1F)C2` [Example 1.31, [5,6-dichloro-3-(2,2-dimethylpropanoylamino)pyridin-2-yl]methyl 2-(2,6-difluoro-4-sulfamoylbenzoyl)-1,3,4,6-tetrahydropyrrolo[3,4-c]pyrrole-5-carboxylate]: the IC50 amounted to 10 nM in experiment [1] and 11.5 nM in experiment [2].

In the case of `CC(C)(C)C(=O)Nc1cc(C(F)(F)F)cnc1COC(=O)N1CC2=C(C1)CN(C(=O)c1ccc(S(N)(=O)=O)c(F)c1F)C2` [Example 1.09, [3-(2,2-dimethylpropanoylamino)-5-(trifluoromethyl)pyridin-2-yl]methyl 2-(2,3-difluoro-4-sulfamoylbenzoyl)-1,3,4,6-tetrahydropyrrolo[3,4-c]pyrrole-5-carboxylate], the IC50 in experiment [1] (setting [3]) was 27 nM; in experiment [2] (setting [4]), 10 nM.

As to `CC(C)(C)C(=O)Nc1cc(C(F)(F)F)cnc1COC(=O)N1CC2=C(C1)CN(C(=O)c1ccc(S(N)(=O)=O)c(Cl)c1)C2` [Example 1.02, [3-(2,2-dimethylpropanoylamino)-5-(trifluoromethyl)pyridin-2-yl]methyl 2-(3-chloro-4-sulfamoylbenzoyl)-1,3,4,6-tetrahydropyrrolo[3,4-c]pyrrole-5-carboxylate], the IC50 in experiment [1] (setting [3]) came out at 5 nM; in experiment [2] (setting [4]), 10 nM.

Compound `CC(C)(C)C(=O)Nc1cc(C#N)cnc1COC(=O)N1CC2=C(C1)CN(C(=O)c1ccc(S(N)(=O)=O)c(F)c1F)C2` [Example 1.26, [5-cyano-3-(2,2-dimethylpropanoylamino)pyridin-2-yl]methyl 2-(2,3-difluoro-4-sulfamoylbenzoyl)-1,3,4,6-tetrahydropyrrolo[3,4-c]pyrrole-5-carboxylate] yielded an IC50 in experiment [1] of 3 nM.

Take `NS(=O)(=O)c1ccc(C(=O)N2CC3=C(CN(C(=O)c4cc(OCC5CCOCC5)nc(C5CC5)c4)C3)C2)nc1` [Example 1.07, 6-[5-[2-cyclopropyl-6-(oxan-4-ylmethoxy)pyridine-4-carbonyl]-1,3,4,6-tetrahydropyrrolo[3,4-c]pyrrole-2-carbonyl]pyridine-3-sulfonamide]: the IC50 in experiment [1] (setting [3]) stood at 12 nM; in experiment [2] (setting [4]) it was 18 nM.

Turning to `CC(C)(C)C(=O)Nc1cc(Cl)c(Cl)nc1COC(=O)N1CC2=C(C1)CN(C(=O)c1ccc(S(N)(=O)=O)cc1F)C2` [Example 1.29, [5,6-dichloro-3-(2,2-dimethylpropanoylamino)pyridin-2-yl]methyl 2-(2-fluoro-4-sulfamoylbenzoyl)-1,3,4,6-tetrahydropyrrolo[3,4-c]pyrrole-5-carboxylate], the IC50 in experiment [1] was found to be 11 nM; in experiment [2], 1.2 nM.

As for `CC(C)(C)C(=O)Nc1cc(C#N)c(Cl)cc1COC(=O)N1CC2=C(C1)CN(C(=O)c1ccc(S(N)(=O)=O)cn1)C2` [Example 2.00, [5-Chloro-4-cyano-2-(2,2-dimethylpropanoylamino)phenyl]methyl 2-(5-sulfamoylpyridine-2-carbonyl)-1,3,4,6-tetrahydropyrrolo[3,4-c]pyrrole-5-carboxylate], the IC50 was determined as 1 nM in experiment [1] and 24 nM in experiment [2].

On to `CC(C)(C)C(=O)Nc1cc(C#N)cnc1COC(=O)N1CC2=C(C1)CN(C(=O)c1c(F)cc(S(N)(=O)=O)cc1F)C2` [Example 1.25, [5-cyano-3-(2,2-dimethylpropanoylamino)pyridin-2-yl]methyl 2-(2,6-difluoro-4-sulfamoylbenzoyl)-1,3,4,6-tetrahydropyrrolo[3,4-c]pyrrole-5-carboxylate], for which the concentration for half-maximal inhibition (IC50) in experiment [2] (setting [4]) was determined as 8 nM.

For the compound `CC(C)(C)C(=O)Nc1cc(C#N)cnc1COC(=O)N1CC2=C(C1)CN(C(=O)c1ccc(S(N)(=O)=O)cc1F)C2` [Example 1.24, [5-cyano-3-(2,2-dimethylpropanoylamino)pyridin-2-yl]methyl 2-(2-fluoro-4-sulfamoylbenzoyl)-1,3,4,6-tetrahydropyrrolo[3,4-c]pyrrole-5-carboxylate], in experiment [2] (setting [4]), the IC50 amounted to 7 nM.

Source of the values: patent publication US10647719B2, “Bicyclic compounds as dual ATX/CA inhibitors” (Hoffmann-La Roche Inc., priority 2015, dated 2020).
